According to PubChem BioAssay (NCI):
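Where inhibition never reached the appropriate level, the endpoint shown equals the highest concentration tested. Otherwise, values were interpolated linearly from a five-concentration, 48-hour dose response in 96-well plates. Abbreviation: GI50, concentration required for 50% inhibition of growth. TGI marks complete inhibition of growth.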

Key:
Experiment in all cases: NCI-60 cell line screen, 48 h
UACC-62 melanoma = system: UACC-62 melanoma
SK-MEL-5 melanoma = system: SK-MEL-5 melanoma
CAKI-1 renal = system: CAKI-1 renal
U251 CNS = system: U251 CNS
HOP-92 NSCLC = system: HOP-92 NSCLC
NCI-H226 lung = system: NCI-H226 lung
SNB-19 CNS = system: SNB-19 CNS
HS 578T breast = system: HS 578T breast
HOP-62 NSCLC = system: HOP-62 NSCLC
SN12C renal = system: SN12C renal
SW-620 colon = system: SW-620 colon
A549 NSCLC = system: A549 NSCLC
T-47D breast = system: T-47D breast
HT29 colon = system: HT29 colon
HCC-2998 colon = system: HCC-2998 colon
SF-268 CNS = system: SF-268 CNS
SR leukemia = system: SR leukemia
MOLT-4 leukemia = system: MOLT-4 leukemia
NCI/ADR-RES ovarian = system: NCI/ADR-RES ovarian
SF-539 CNS = system: SF-539 CNS
M14 melanoma = system: M14 melanoma
SK-MEL-2 melanoma = system: SK-MEL-2 melanoma
K-562 leukemia = system: K-562 leukemia
UACC-257 melanoma = system: UACC-257 melanoma
COLO 205 colon = system: COLO 205 colon
UO-31 renal = system: UO-31 renal
RXF 393 renal = system: RXF 393 renal
MCF7 breast = system: MCF7 breast
HCT-15 colon = system: HCT-15 colon
OVCAR-8 ovarian = system: OVCAR-8 ovarian
PC-3 prostate = system: PC-3 prostate
SNB-75 CNS = system: SNB-75 CNS
HCT-116 colon = system: HCT-116 colon
SK-OV-3 ovarian = system: SK-OV-3 ovarian
RPMI-8226 leukemia = system: RPMI-8226 leukemia
OVCAR-4 ovarian = system: OVCAR-4 ovarian
MDA-MB-231 breast = system: MDA-MB-231 breast
ACHN renal = system: ACHN renal
A498 renal = system: A498 renal
MALME-3M melanoma = system: MALME-3M melanoma
SK-MEL-28 melanoma = system: SK-MEL-28 melanoma
KM12 colon = system: KM12 colon
BT-549 breast = system: BT-549 breast
786-0 renal = system: 786-0 renal
SF-295 CNS = system: SF-295 CNS
LOX IMVI melanoma = system: LOX IMVI melanoma
DU-145 prostate = system: DU-145 prostate
OVCAR-5 ovarian = system: OVCAR-5 ovarian
CCRF-CEM leukemia = system: CCRF-CEM leukemia
MDA-MB-435 = system: MDA-MB-435
HL-60(TB) leukemia = system: HL-60(TB) leukemia
NCI-H460 lung = system: NCI-H460 lung
OVCAR-3 ovarian = system: OVCAR-3 ovarian
IGROV1 ovarian = system: IGROV1 ovarian
TK-10 renal = system: TK-10 renal

For Cc1ccc(NC2=C(Cl)C(=O)c3nc(C)ccc3C2=O)c(C)c1, the GI50 (UACC-62 melanoma) was 2000 nM, the TGI (UACC-62 melanoma) was 4010 nM and the GI50 (SK-MEL-5 melanoma) was 1670 nM. For the same compound, the TGI (SK-MEL-5 melanoma) was 3080 nM, the GI50 (CAKI-1 renal) was 1730 nM and the TGI (CAKI-1 renal) was 3340 nM. For the same compound, the GI50 (U251 CNS) was 1760 nM, the TGI (U251 CNS) was 3370 nM and the GI50 (HOP-92 NSCLC) was 2080 nM. For the same compound, the TGI (HOP-92 NSCLC) was 4350 nM, the GI50 (NCI-H226 lung) was 1810 nM and the TGI (NCI-H226 lung) was 4630 nM. For the same compound, the GI50 (SNB-19 CNS) was 1940 nM, the TGI (SNB-19 CNS) was 4340 nM and the GI50 (HS 578T breast) was 2280 nM. The TGI (HS 578T breast) was 5950 nM, the GI50 (HOP-62 NSCLC) was 1710 nM and the TGI (HOP-62 NSCLC) was 3160 nM. It also gave a GI50 (SN12C renal) of 1950 nM, a TGI (SN12C renal) of 5030 nM and a GI50 (SW-620 colon) of 2150 nM. It also gave a TGI (SW-620 colon) of 4650 nM, a GI50 (A549 NSCLC) of 2220 nM and a TGI (A549 NSCLC) of 5200 nM. For the same compound, the GI50 (T-47D breast) was 1660 nM, the TGI (T-47D breast) was 4140 nM and the GI50 (HT29 colon) was 2610 nM. It also gave a TGI (HT29 colon) of 7340 nM, a GI50 (HCC-2998 colon) of 1750 nM and a TGI (HCC-2998 colon) of 3310 nM. The GI50 (SF-268 CNS) was 1860 nM, the TGI (SF-268 CNS) was 4160 nM and the GI50 (SR leukemia) was 1280 nM. The TGI (SR leukemia) was 4190 nM, the GI50 (MOLT-4 leukemia) was 1600 nM and the TGI (MOLT-4 leukemia) was 4830 nM. For the same compound, the GI50 (NCI/ADR-RES ovarian) was 2170 nM, the TGI (NCI/ADR-RES ovarian) was 6520 nM and the GI50 (SF-539 CNS) was 1700 nM. The TGI (SF-539 CNS) was 3210 nM, the GI50 (M14 melanoma) was 1620 nM and the TGI (M14 melanoma) was 3080 nM. The GI50 (SK-MEL-2 melanoma) was 1930 nM, the TGI (SK-MEL-2 melanoma) was 3880 nM and the GI50 (K-562 leukemia) was 1620 nM. It also gave a TGI (K-562 leukemia) of 5540 nM, a GI50 (UACC-257 melanoma) of 1500 nM and a TGI (UACC-257 melanoma) of 2920 nM. The GI50 (COLO 205 colon) was 2060 nM, the TGI (COLO 205 colon) was 4280 nM and the GI50 (UO-31 renal) was 1560 nM. For the same compound, the TGI (UO-31 renal) was 3150 nM, the GI50 (RXF 393 renal) was 1410 nM and the TGI (RXF 393 renal) was 2760 nM. The GI50 (MCF7 breast) was 1400 nM, the TGI (MCF7 breast) was 3580 nM and the GI50 (HCT-15 colon) was 1300 nM. For the same compound, the TGI (HCT-15 colon) was 3190 nM, the GI50 (OVCAR-8 ovarian) was 2410 nM and the TGI (OVCAR-8 ovarian) was 7110 nM. The GI50 (PC-3 prostate) was 1560 nM, the TGI (PC-3 prostate) was 3660 nM and the GI50 (SNB-75 CNS) was 1490 nM. For the same compound, the TGI (SNB-75 CNS) was 3080 nM, the GI50 (HCT-116 colon) was 1520 nM and the TGI (HCT-116 colon) was 3250 nM. For the same compound, the GI50 (SK-OV-3 ovarian) was 2750 nM, the TGI (SK-OV-3 ovarian) was 10600 nM and the GI50 (RPMI-8226 leukemia) was 1540 nM. It also gave a TGI (RPMI-8226 leukemia) of 4340 nM, a GI50 (OVCAR-4 ovarian) of 1530 nM and a TGI (OVCAR-4 ovarian) of 3020 nM. The GI50 (MDA-MB-231 breast) was 1890 nM, the TGI (MDA-MB-231 breast) was 4440 nM and the GI50 (ACHN renal) was 1910 nM. The TGI (ACHN renal) was 3720 nM, the GI50 (A498 renal) was 1610 nM and the TGI (A498 renal) was 6590 nM. For the same compound, the GI50 (MALME-3M melanoma) was 1960 nM, the TGI (MALME-3M melanoma) was 3900 nM and the GI50 (SK-MEL-28 melanoma) was 1950 nM. It also gave a TGI (SK-MEL-28 melanoma) of 3840 nM, a GI50 (KM12 colon) of 1740 nM and a TGI (KM12 colon) of 3290 nM. The GI50 (BT-549 breast) was 1440 nM, the TGI (BT-549 breast) was 2820 nM and the GI50 (786-0 renal) was 2000 nM. For the same compound, the TGI (786-0 renal) was 4400 nM, the GI50 (SF-295 CNS) was 1820 nM and the TGI (SF-295 CNS) was 3430 nM. The GI50 (LOX IMVI melanoma) was 1140 nM, the TGI (LOX IMVI melanoma) was 3880 nM and the GI50 (DU-145 prostate) was 1710 nM. It also gave a TGI (DU-145 prostate) of 3220 nM, a GI50 (OVCAR-5 ovarian) of 2260 nM and a TGI (OVCAR-5 ovarian) of 4330 nM. It also gave a GI50 (CCRF-CEM leukemia) of 2020 nM, a TGI (CCRF-CEM leukemia) of 6000 nM and a GI50 (MDA-MB-435) of 1960 nM. The TGI (MDA-MB-435) was 3810 nM, the GI50 (HL-60(TB) leukemia) was 1740 nM and the TGI (HL-60(TB) leukemia) was 4480 nM. It also gave a GI50 (NCI-H460 lung) of 1990 nM, a TGI (NCI-H460 lung) of 4170 nM and a GI50 (OVCAR-3 ovarian) of 1420 nM. For the same compound, the TGI (OVCAR-3 ovarian) was 2840 nM, the GI50 (IGROV1 ovarian) was 1850 nM and the TGI (IGROV1 ovarian) was 3880 nM. For the same compound, the GI50 (TK-10 renal) was 2150 nM and the TGI (TK-10 renal) was 3680 nM.
